Melting point data for 88 compounds are collected here from a melting point compilation (Tetko et al.; mined from patent text by program, amines drawn as free bases though some values may be those of a salt).

As usually defined, the melting point is the temperature, or range, at which the solid turns liquid. The compound `COc1ccc(CN2CCN(CC(=O)N3CC=C(c4cccc(C(F)(F)F)c4)n4ncc(C#N)c43)CC2)cc1` registered a melting point of 151 to 153 °C.

In turn, `C=Cc1c(N)nc(-c2ccc(Cl)c(OC)c2F)nc1C(=O)OC` came in with a melting point of 145 to 147 °C. As for `COC(=O)c1nc(S)n(C(c2ccccc2)c2ccccc2)c1C(=O)OC`, the figure is 154 °C.

Regarding `CC1C(=O)NC(=O)NC1=O`, the melting point lay in the range of 200 to 215 °C. Next, `O=C(CC(F)(F)F)NC[C@H]1CN(c2ccc3c(c2)CCCc2cn[nH]c2-3)C(=O)O1`: 243 to 245 °C; `CC(C)c1cc(Sc2cc(C(C)C)c(O)c(C(C)C)c2)cc(C(C)C)c1O`: 93.5 to 94.2 °C.

Compound `N#Cc1ccc2cc(CCCc3cc4ccc(C#N)cc4o3)oc2c1` registered a melting point of 199 to 201 °C. As for `CC12C(=CCC3C1CCC1(C)C3CCC13OCCO3)CC(O)CC2O` (stereo not drawn), the figure is 205 to 206 °C; as for `O=C(Nc1nc2cnccc2s1)N1CCCC1`, 218 to 220 °C. Next, `CN1C(=O)[C@H](NC(=O)CCCc2cccs2)N=C(c2ccccc2)c2ccccc21`: 170 to 180 °C; `Cc1nc2c3c(c(C(N)=O)cc2n1C)CCC(c1ccccc1)N3` (stereo not drawn): 311 to 319 °C. As for `CCOc1nc(N)nc(-c2ccccc2)c1-c1ccc(=O)n(C(C)C)n1`, the figure is 188 °C; as for `Cc1ccnc2c(Oc3ccc([N+](=O)[O-])cc3)cccc12`, 148 to 149 °C.

Consider `c1cc2c(cc1C1CCC3(CC1)OCCO3)OCO2`, for which the melting point fell in the range of 115 to 116 °C. Next, `COc1cc2c(cc1OC)C(C)=[N+]([O-])C(c1ccco1)N2` (stereo not drawn): 191 to 195 °C. Next, `COC(=O)CC1CCc2cc(C(=O)c3ccccc3)c(O)cc21` (stereo not drawn): 148 to 150 °C; `CCC(=O)Nc1nc2cccc(C)c2c(=O)o1`: 108 to 109 °C. Next, `CO[C@H]1CC[C@H](C(=O)N2CCC(c3[nH]nc4c3C(=O)c3c(NC(=O)NN5CCOCC5)cccc3-4)CC2)CC1`: 178 to 180 °C; `Cc1ccc(C2=NC[C@@H](O)[C@H](c3ccccc3)O2)cc1` (racemic): 168 °C. Take `O=C1NCC(c2cn3c4c(cccc24)CCC3)=C1c1c[nH]c2ccccc12`: the melting point was in the range of 260 to 262 °C. For `CN(C)C=Cc1ccc(OC(F)(F)F)cc1[N+](=O)[O-]`, the melting point worked out at 59 °C. Next, `CN(CCC(=O)O)c1ccccc1CNC(=O)C1Cc2ccccc2N1S(=O)(=O)c1ccc(-c2ccc(F)cc2Cl)cc1` (stereo not drawn): 75 to 83 °C; `CC(c1ccc2c(c1)CCC(=O)N2)n1ccnc1` (stereo not drawn): 185 °C. Next, `CCCCN(C(=O)C(C)C)c1ccc(-c2ccccc2)o1`: 87 °C; `CC(C)(C)c1cc(C=Nn2ccnc2)cc(C(C)(C)C)c1O`: 171 to 174 °C; `COCCNn1ncc2nc(C)ccc21`: 167 to 170 °C. As for `Brc1ccc(C2(c3ccc(Br)cc3)OCCO2)cc1`, the figure is 103 to 104 °C. In the case of `CC(C)(C)C(O)(COc1ccc(Cl)cc1)Cn1cncn1` (stereo not drawn), the melting point was determined as 57 °C. Next, `CCOC(=O)C1=CC2(CCC1S(=O)(=O)Nc1ccc(F)cc1Cl)OC(CC)C(CC)(CC)O2` (stereo not drawn): 124 to 126 °C. As for `CCC(=O)c1ccc(CN2C(=O)c3ccccc3C2=O)s1`, the figure is 104 to 106 °C.

In the case of `CSc1nccc(C)c1NC(=O)CCCCCCCCSc1nc2ccccc2s1`, the melting point lay within 88 to 90 °C. Next, `COc1ccc(OCc2ccccc2)c(C(=O)OCc2ccccc2)c1`: 93 to 94.5 °C; `CC(C)(C)OC(=O)N[C@@H](C(=O)N1CCC[C@H]1C(=O)NCC1CCc2n[nH]cc2C1)C(c1ccccc1)c1ccccc1` (stereo partly drawn): 113 to 116 °C.

As for `CCC(=C(c1ccccc1)c1ccc(OCC2CO2)cc1)C1CCCC1` (stereo not drawn), the melting point lay within 79 to 82 °C. As for `Cc1cc2c(c(C)c1NC(=O)CC(C)(C)C)CC(C)(C)O2`, the figure is 181 to 182 °C. As for `C=C(CS(=O)(=O)c1ccccc1)c1ccccc1`, the figure is 105 °C. As for `CCN(c1cccc2cc(C3=NCCS3)[nH]c12)S(=O)(=O)c1cccs1`, the figure is 206 to 207 °C; as for `COC(=O)c1c(-c2ccc(C)cc2)c2cc(OCc3ccccc3)ccc2c(=O)n1CC(C)C`, 142 to 143 °C; as for `O=[N+]([O-])c1cc(Cl)c(CCN2CCN(c3nsc4ccccc34)CC2)cc1Cl`, 153 to 157 °C.

In the case of `N#CCCNC(=O)c1cccc(-c2cccc3nn(Cc4ccccc4)cc23)c1`, the melting point is 143 to 144 °C. `CCc1ccc2oc(=O)[nH]c2c1` registered a melting point of 146 to 147 °C. As to `S=c1nc(-c2ccc(Cl)c(Cl)c2)[nH]n1Cc1ccccc1`, the melting point lay within 227 to 228 °C.

The compound `CCCn1nc2c(N)nc3ccccc3c2c1CC(C)(C)NC(=O)NC(C)C` gave a melting point of 190 to 191 °C. Next, `Cc1ccccc1C1CC(=O)c2c(C)ccnc2C1` (stereo not drawn): 104 to 106 °C; `CS(=O)(=O)c1ccc(-c2nn(Cc3ccccc3)c(=O)cc2-c2ccc(F)cc2)cc1`: 188 °C.

For `N#Cc1cc(-c2c[nH]nc2-c2ccc(F)cc2)ccn1`, the melting point is 209 °C. Next, `Oc1ccc2c(c1)C13CCCCC1N(C2)NCC3` (single isomer, unassigned; (-)): 244 to 246 °C; `CCOC(=O)C(Oc1ccc(Oc2ccc(C#N)cc2)cc1)C(=O)OCC`: 42 to 46 °C; `COC(=O)Cc1ccc(OCCNC(=O)C2Cc3ccccc3N2S(=O)(=O)c2ccc(-c3ccc(F)cc3)cc2)c(Cl)c1` (stereo not drawn): 68 to 76 °C. As for `O=C(Nc1ccc(Br)cc1)c1ccccc1[N+](=O)[O-]`, the figure is 202 to 205 °C; as for `Oc1ccc(Nc2ncc3nc(Nc4c(F)cc(F)cc4F)n(C4CCCC4)c3n2)cn1`, 257 to 260 °C; as for `Cn1cc(Br)cc(Nc2ccn(CCO[Si](C)(C)C(C)(C)C)n2)c1=O`, 96 to 97 °C. As for `COc1ccc(C2CCCCC2)cc1-c1csc(NC(=O)N2CCN(C3CCN(S(=O)(=O)C4CC4)CC3)CC2)n1`, the figure is 138 °C. As to `CCN(CC)CCNC(=O)c1cc(Cl)c(N)cc1OCC(OC)OC`, the melting point lay within 64 to 67 °C. As for `CCc1cc(CCCOc2c(C)cc(-c3noc(C(F)(F)F)n3)cc2C)on1`, the figure is 157 to 158 °C. `C=C(c1ccc(C(=O)N(C)OC)cc1)C(O)(Cn1cncn1)c1ccc(F)cc1F` (stereo not drawn) returned a melting point of 154 to 156 °C. Next, `c1ccc(-c2nnc3ccc(N4CCOCC4)nn23)cc1`: 266 to 268 °C.

On to `CN1C(=O)N(c2ccccc2)S[N+]1(C)[O-]` (stereo not drawn), for which the melting point was 77 to 79 °C. As for `COC(=O)Nc1cc(OC)c(-c2ccc(C[C@H](NC(=O)c3c(Cl)cccc3Cl)C(=O)O)cc2)c(OC)c1`, the figure is 235 to 236 °C. As for `Cc1ccc2c(C#N)cn(-c3ccc(C(C)C)cc3Br)c2n1`, the figure is 176 °C. As for `Cc1cccc(C)c1NCC(=O)c1ccc(Cl)cc1`, the figure is 82 °C. Take `CCOC(=O)c1ccc(NC(=O)[C@H](CO)NS(=O)(=O)c2ccc(Cl)cc2)cc1`: the melting point lay in the range of 157 to 160 °C. For the compound `O=C(c1cccnc1)c1ccc(Cl)c([N+](=O)[O-])c1`, the melting point is 112 to 113 °C. As for `CCOC(=O)c1ncn2c1c(=O)n(C)c1ncccc12`, the figure is 233 to 234 °C. For the compound `Cc1nc(C(C)(C)C)ccc1/C=C/C(=O)Nc1ccc2cc[nH]c2c1`, the melting point was found to be 182 °C. As for `NC(=O)c1nc(CCl)n(-c2ccc(Cl)cc2C(=O)c2ccccc2)n1`, the figure is 128 to 130 °C; as for `Cc1c(Sc2ccc(Cl)cc2)c2cc(S(C)(=O)=O)ccc2n1CC(=O)O`, 185 to 187 °C. As for `CC1CCCCC1C(=O)Nc1ccc(-c2cnc(-c3ccc(NC(=O)c4ccccn4)cc3)[nH]2)cc1` (stereo not drawn), the figure is 227 to 229 °C; as for `Cc1cc(C)c2cccc(OCc3c(Cl)ccc(S(=O)(=O)N4CCC[C@H]4C(=O)NCCCNC(=O)COc4ccc(C=NN)cc4)c3Cl)c2n1`, 124 to 128 °C. As for `COC(=O)c1c(OCc2ccccc2)ccc2c1CC[C@@H](N)[C@@H]2O` (relative stereo), the figure is 124 to 126 °C; as for `O=C1C(N2CCOCC2)=CCCN1c1ccc(I)cc1`, 138 to 148 °C. `COC(=O)c1cc(C(=O)c2ccc(OC)c3ccccc23)cn1C`: the melting point came out at 162 °C. As for `CON(C)C(=O)CC(c1cccc(Br)c1)c1ccccc1C` (stereo not drawn), the figure is 89 °C; as for `Cc1cc2n(n1)C(c1cccc([N+](=O)[O-])c1)N=N2` (stereo not drawn), 269 to 275 °C; as for `CCOC(=O)COc1ccccc1-c1nc2n(C3CCCC3)[nH]c(CC)c-2c(=O)n1`, 116 to 117 °C. For `COc1cccc(Oc2cccc(-c3ccccc3)c2)c1`, the melting point is 41 to 42 °C. Next, `O=c1c2ccsc2ccn2ccnc12`: 267 °C; `CC1(CC(=O)O)CCCCC1=O` (stereo not drawn): 87 to 90 °C. For `Cc1ncnn1-c1ccc(N)cc1`, the melting point was 145 °C.

`CCOCn1c(Nc2cc(C)cc(C)c2)c(CC)c(=O)[nH]c1=O` had a melting point of 175 to 176 °C. As for `O=C(CCl)NCCOCCO`, the figure is 130 to 132 °C.

On to `CC(C)CCn1c(CN2C(=O)N(C3CC3)Cc3ccccc32)nc2cc(CN)ccc21`, for which the melting point is 113 °C. Next, `Cc1oc(-c2ccccc2)nc1COc1ccc(CCc2oc(-c3ccccc3)nc2CC(=O)O)cc1`: 180 to 181 °C. `CCOP(=O)(OCC)Oc1cc(C(C)C)c(NC(=O)CN2CCN(CCSc3nc4ccccc4o3)CC2)c(C(C)C)c1` showed a melting point of 108 to 109 °C. Consider `CN(C)C(=O)c1cccnc1S(=O)(=O)Br`, for which the melting point is 108 to 111 °C. As for `O=C(O)c1ccc(NCCc2cccs2)cc1`, the figure is 161 to 163 °C; as for `CNc1ccc([N+](=O)[O-])cc1N`, 171 to 173 °C. Next, `CCNC(=O)OCCCCCCCCC1CC2=C(C1)C(=O)C(OC)=C(OC)C2=O`: 85 to 86 °C.
